The nature of series [1]: Measurement of Log P values by HPLC on reversed phase columns (EEC directive 79/831 Annex V.A8). The series is classed as physicochemical. As to conditions: LogP. How it is done: Measurement of Log P values as provided herein was performed according to EEC directive 79/831 Annex V.A8 by HPLC (High Performance Liquid Chromatography) on reversed phase columns with the following methods: • ^[a] Log P value is determined by measurement of LC-UV, in an acidic range, with 0.1% formic acid in water and acetonitrile as eluent (linear gradient from 10% acetonitrile to 95% acetonitrile). • ^[b] Log P value is determined by measurement of LC-UV, in a neutral range, with 0.001 molar ammonium acetate solution in water and acetonitrile as eluent (linear gradient from 10% acetonitrile to 95% acetonitrile). • ^[c] Log P value is determined by measurement of LC-UV, in an acidic range, with 0.1% phosphoric acid and acetonitrile as eluent (linear gradient from 10% acetonitrile to 95% acetonitrile).
If more than one Log P value is available within the same method, all the values are given and separated by “+”.
Calibration was done with straight-chain alkan2-ones (with 3 to 16 carbon atoms) with known Log P values (measurement of Log P values using retention times with linear interpolation between successive alkanones). Lambda-max-values were determined using UV-spectra from 200 nm to 400 nm and the peak values of the chromatographic signals

Another series has as its system Alternaria alternata. In words: Alternaria alternata in vitro cell test. The series is classed as cell-based. To be noted: 120 h, 20 ppm of active ingredient, 5 days incubation, liquid culture, spectrometric measurement of mycelium growth, read-out: efficacy (inhibition of fungal growth). How it is done: (§1) • Solvent: DMSO • Culture medium: 14.6 g anhydrous D-glucose (VWR), 7.1 g Mycological Peptone (Oxoid), 1.4 g granulated Yeast Extract (Merck), QSP 1 liter • Inoculum: spore suspension Fungicides were solubilized in DMSO and the solution used to prepare the required range of concentrations. […] A spore suspension of A. alternata was prepared and diluted to the desired spore density. Fungicides were evaluated for their ability to inhibit spore germination and mycelium growth in liquid culture assay. The compounds were added in the desired concentration to the culture medium with spores. After 5 days incubation, fungi-toxicity of compounds was determined by spectrometric measurement of mycelium growth. Inhibition of fungal growth was determined by comparing the absorbance values in wells containing the fungicides with the absorbance in control wells without fungicides.

A further series deals with Pyricularia oryzae. In words: microbe, parasite or virus in culture. The series is classed as cell-based. As to conditions: 120 h, read-out: efficacy (inhibition of fungal growth).
In series [2] the test system is Colletotrichum lindemuthianum. In words: Colletotrichum lindemuthianum in vitro cell test. The series is classed as cell-based. To be noted: 144 h, 20 ppm of active ingredient, 6 days incubation, liquid culture, spectrometric measurement of mycelium growth, read-out: efficacy (inhibition of fungal growth). The method, then:
as §1, with “of C. lindemuthianum” for “of A. alternata”, “inhibit spores” for “inhibit spore”, “After 6” for “After 5”

The test system of the next series is Pyrenophora teres. In words: Pyrenophora teres in vitro cell test. The series is classed as cell-based. To be noted: 144 h, 20 ppm of active ingredient, 6 days incubation, liquid culture, spectrometric measurement of mycelium growth, read-out: efficacy (inhibition of fungal growth). The method, then:
as §1, with “P. teres” for “A. alternata”, “6” for “5”

For series [3], the system named is Botrytis cinerea. In words: Botrytis cinerea in vitro cell test. Format: cell-based. To be noted: 144 h, 20 ppm of active ingredient, 6 days incubation, liquid culture, spectrometric measurement of mycelium growth, read-out: efficacy (inhibition of fungal growth). How it is done:
(§2) • Solvent: DMSO • Culture medium: 1 g KH2PO4 (VWR), 1 g K2HPO4 (VWR), 0.5 g Urea (VWR), 3 g KNO3 (Prolabo), 10 g saccharose (VWR), 0.5 g MgSO4, 7H2O (Sigma), 0.07 g CaCl2, 2H2O (Prolabo), 0.2 mg MnSO4, H2O (Sigma), 0.6 mg CuSO4, 5H2O (Sigma), 7.9 mg ZnSO4, 7H2O (Sigma), 0.1 mg H3BO3 (Merck), 0.14 mg NaMoO4, 2H2O (Sigma), 2 mg thiamine (Sigma), 0.1 mg biotine (VWR), 4 mg FeSO4, 7H2O (Sigma), QSP 1 liter • Inoculum: spore suspension Fungicides were solubilized in DMSO and the solution used to prepare the required range of concentrations. […] A spore suspension of B. cinerea was prepared and diluted to the desired spore density. Fungicides were evaluated for their ability to inhibit spore germination and mycelium growth in liquid culture assay. The compounds were added in the desired concentration to the culture medium with spores. After 6 days incubation, fungi-toxicity of compounds was determined by spectrometric measurement of mycelium growth. Inhibition of fungal growth was determined by comparing the absorbance values in wells containing the fungicides with the absorbance in control wells without fungicides.

A further series has as its system Septoria tritici. In words: Septoria tritici in vitro cell test. The series is classed as cell-based. To be noted: Zymoseptoria tritici, 168 h; 20 ppm of active ingredient; 7 days incubation; liquid culture, spectrometric measurement of mycelium growth; read-out: efficacy (inhibition of fungal growth). How it is done:
as §2, with “S. tritici” for “B. cinerea”, “After 6 days incubation, fungi-toxicity of compounds was determined by spectrometric measurement of mycelium growth.” left out

A further series deals with Alternaria brassicae. In words: In vivo preventive test on Alternaria brassicae (leaf spot on radish or cabbage). As to conditions: 144 h, 500 ppm of active ingredient, preventive spray on young radish or cabbage plants, evaluated 6 days after inoculation, read-out: efficacy. How it is done:
The active ingredients were made soluble and homogenized in a mixture of Dimethyl sulfoxide/Acetone//Tween®80 and then diluted in water to the desired concentration. The young plants of radish or cabbage were treated by spraying the active ingredient prepared as described above. Control plants were treated only with an aqueous solution of Acetone/Dimethyl sulfoxide/Tween® 80. After 24 hours, the plants were contaminated by spraying the leaves with an aqueous suspension of Alternaria brassicae spores.

The subject of series [4] is Botrytis cinerea. In words: In vivo preventive test on Botrytis cinerea (grey mould). To be noted: 500 ppm of active ingredient, preventive spray on young gherkin or cabbage plants, evaluated 4 to 5 days after inoculation, read-out: efficacy. The method, then: The active ingredients were made soluble and homogenized in a mixture of Dimethyl sulfoxide/Acetone//Tween®80 and then diluted in water to the desired concentration. The young plants of gherkin or cabbage were treated by spraying the active ingredient prepared as described above. Control plants were treated only with an aqueous solution of Acetone/Dimethyl sulfoxide/Tween® 80. After 24 hours, the plants were contaminated by spraying the leaves with an aqueous suspension of Botrytis cinerea spores.

The subject of a further series is Sphaerotheca fuliginea. In words: In vivo preventive test on Sphaerotheca fuliginea (powdery mildew on cucurbits). As to conditions: Podosphaera fuliginea, 192 h; 500 ppm of active ingredient; preventive spray on young gherkin plants; evaluated 8 days after inoculation; read-out: efficacy. The method, then:
The active ingredients were made soluble and homogenized in a mixture of Dimethyl sulfoxide/Acetone//Tween®80 and then diluted in water to the desired concentration. The young plants of gherkin were treated by spraying the active ingredient prepared as described above. Control plants were treated only with an aqueous solution of Acetone/Dimethyl sulfoxide/Tween® 80. After 24 hours, the plants were contaminated by spraying the leaves with an aqueous suspension of Sphaerotheca fuliginea spores.

In series [5] the test system is Colletotrichum lindemuthianum. In words: In vivo preventive test on Colletotrichum lindemuthianum (leaf spot on bean). As to conditions: 168 h, 500 ppm of active ingredient, preventive spray on young bean plants, evaluated 7 days after inoculation, read-out: efficacy. The method, then: The active ingredients were made soluble and homogenized in a mixture of Dimethyl sulfoxide/Acetone//Tween®80 and then diluted in water to the desired concentration. The young plants of bean were treated by spraying the active ingredient prepared as described above. Control plants were treated only with an aqueous solution of Acetone/Dimethyl sulfoxide/Tween® 80. After 24 hours, the plants were contaminated by spraying the leaves with an aqueous suspension of Colletotrichum lindemuthianum spores.

Structures are written as SMILES.

By chromatographic logP is commonly meant a lipophilicity value derived from retention on a column. The low end stands for lower lipophilicity, the high end for higher lipophilicity. By inhibition is commonly meant the change of the read-out against control, counted positive when it falls. The molecule `Cc1ncc(Oc2cccc(Cl)c2)c(C2=NOC[C@@H](c3ccc4c(c3)OCCO4)N2)n1` (racemic) [Compound I-031] gave a chromatographic logP in series [1] of 3.04. The inhibition at 20 ppm (in the series with Alternaria alternata; in the series with Pyricularia oryzae; in [2]; in the series on Pyrenophora teres; in the series on Botrytis cinerea [3]) was 90 to 100% each time.
For `Cc1ccc(CC2CON=C(c3nc(C)ncc3Oc3cccc([N+](=O)[O-])c3)N2)c(C)c1` (racemic) [Compound I-003, (5RS)-5-(2,4-dimethylbenzyl)-3-[2-methyl-5-(3-nitro-phenoxy)pyrimidin-4-yl]-5,6-dihydro-4H-1,2,4-oxadiazine], the chromatographic logP in [1] stood at 3.78. Besides, the inhibition at 20 ppm (with Alternaria alternata; with Pyricularia oryzae; in series [2]; with Pyrenophora teres; in the series on Botrytis cinerea [3]; with Septoria tritici) was 90 to 100% throughout. For the same molecule, the pest or weed control at 500 ppm was in the range of 90 to 100% in the series on Alternaria brassicae, 90 to 100% in the series with Botrytis cinerea [4] and 80 to 89% in the series on Sphaerotheca fuliginea.
Regarding `Cc1ncc(Oc2cccc(C(F)(F)F)c2)c(C2=NOC[C@@H](Cc3ccc(OC(F)F)cc3Cl)N2)n1` (racemic) [Compound I-027], in series [1], the chromatographic logP was found to be 4.15. For the same molecule, the inhibition at 20 ppm in the series on Alternaria alternata, with Pyrenophora teres, with Botrytis cinerea [3] and in the series on Septoria tritici was 90 to 100% throughout. Besides, the pest or weed control at 500 ppm (in the series on Alternaria brassicae; with Botrytis cinerea [4]; in the series on Sphaerotheca fuliginea; in [5]) was 90 to 100% throughout.
As for `Cc1ncc(Oc2cccc(Cl)c2)c(C2=NOCC(c3ccc4c(c3)CCC4)N2)n1` (racemic) [Compound I-014, (5RS)-3-[5-(3-chlorophenoxy)-2-methyl-pyrimidin-4-yl]-5-indan-5-yl-5,6-dihydro-4H-1,2,4-oxadiazine], the chromatographic logP in [1] worked out at 4.05. Besides, the inhibition at 20 ppm (in the series on Alternaria alternata; in the series with Pyricularia oryzae; in series [2]; with Pyrenophora teres; in the series with Botrytis cinerea [3]; in the series on Septoria tritici) was 90 to 100% in each case. The pest or weed control at 500 ppm in the series on Alternaria brassicae, in the series with Botrytis cinerea [4] and in the series with Sphaerotheca fuliginea was 90 to 100% each time.
Consider `Cc1ncc(Oc2cccc(Cl)c2)c(C2=NO[C@@H](F)[C@@H](c3ccc(Cl)cc3)N2)n1` (racemic) [Compound I-028], for which, in [1], the chromatographic logP amounted to 3.79. For the same molecule, the inhibition at 20 ppm with Alternaria alternata, in the series on Pyricularia oryzae, with Pyrenophora teres, with Botrytis cinerea [3] and with Septoria tritici was 90 to 100% in each case.

(Values after patent publication US12565489B2, “Heterocyclyl pyrimidines and triazines as novel fungicides” (Bayer Aktiengesellschaft, priority 2020, dated 2026).)
